The results in this text go back to US20050227977A1, “Substituted 1,2,5,10-tetrahydropyridazino [4,5-b]quinoline-1,10-dione compounds and methods for the treatment of pain” (AstraZeneca AB, priority 1999, published 2005).

The target of this assay is T1, NMDA receptor glycine site (Rattus norvegicus, UniProt P35439).
T1 construct: tissue Analytical Biological Services Inc; host or cells: rat brain membranes (cerebral cortex and hippocampus, male Sprague Dawley rats)
Kind of assay: Test A: Inhibition of binding of [3H]-MDL105,519. The settings on record: inhibition of 1.2 nM [3H]MDL105,519 binding to brain membranes; table does not say rat or human membranes. The text has this: Test A: Inhibition of Binding of [^3H]-MDL105,519:
Binding of compounds to the NMDA receptor glycine site may be assessed by measuring the ability of test compounds to inhibit the binding of tritiated MDL105,519 to brain membranes bearing the receptor.
Briefly, fresh brain tissue including cerebral cortex and hippocampus from male Sprague Dawley rats was homogenized in 0.32 M sucrose and centrifuged at low speed to separate cellular membranes from other cellular components. The membranes were then washed 3 times using deionized water, followed by treatment with 0.04% Triton X-100. Finally, membranes were washed six times in 50 mM Tris citrate buffer, pH 7.4, and frozen at −80° C. until use.
[^3H]MDL105,519 (72 Ci/mmol) was purchased from Amersham. Cold MDL105,519 was purchased from Sigma/RBI. […] On the day of the experiment, brain membranes were thawed at room temperature and suspended in 50 mM tris acetate buffer, pH 7.4 (“TAB”). Seventy-five micro grams per milliliter protein (by using the BioRad dye) were used for competition binding. The experiments were carried out using 96-well plates. […] Non specific binding was determined by using 100 μM of unlabeled MDL105,519. […] After incubation, unbound [^3H]MDL105,519 was removed by filtration onto GF/B Unifilter plates using a Packard harvester. Filters were washed four times with ice cold TAB (total of 1.2 mL buffer). The plates were dried overnight at room temperature and bound radioactivity was measured on a Packard TopCount after the addition of 45 μL per well of the MICROSCINT O.
Human Brain Membranes: Human brain membranes were obtained from Analytical Biological Services Inc., and assays were performed as described for rat membranes.
Data analysis: Data was analyzed using a Microsoft Excel spreadsheet and GraphPad Prizm software and potency of compounds is expressed as the Ki (nM).
As to `Cc1cc(Cn2nc(O)c3[nH]c4cc(Cl)ccc4c(=O)c3c2=O)ccc1OC(=O)N1CCOCC1` [Ex. 12, Morpholine-4-carboxylic acid 4-(7-chloro-4-hydroxy-1,10-dioxo-5,10-dihydro-1H-pyridazino[4,5-b]quinolin-2-ylmethyl)-2-methyl-phenyl ester], affinity was put at a Ki of 267 nM. The compound `Cc1cc(Cn2nc(O)c3[nH]c4cc(Cl)ccc4c(=O)c3c2=O)ccc1OC(=O)N(C)c1ccccc1` [Ex. 13, Methyl-phenyl-carbamic acid 4-(7-chloro-4-hydroxy-1,10-dioxo-5,10-dihydro-1H-pyridazino[4,5-b]quinolin-2-ylmethyl)-2-methyl-phenyl ester] gave a Ki of 59 nM. As to `COc1ccc(Cn2nc(O)c3[nH]c4cc(Cl)ccc4c(=O)c3c2=O)cc1OC(=O)N(C)C` [Ex. 14, Dimethyl-carbamic acid 5-(7-chloro-4-hydroxy-1,10-dioxo-5,10-dihydro-1H-pyridazino[4,5-b]quinolin-2-ylmethyl)-2-methoxy-phenyl ester], the Ki is 165 nM. The value for `COc1ccc(Cn2nc(O)c3[nH]c4cc(Cl)ccc4c(=O)c3c2=O)cc1OC(=O)N1CCOCC1` [Ex. 16, Morpholine-4-carboxylic acid 5-(7-chloro-4-hydroxy-1,10-dioxo-5,10-dihydro-1H-pyridazino[4,5-b]quinolin-2-ylmethyl)-2-methoxy-phenyl ester] was 86.6 nM.

As usually defined, the Ki is a dissociation constant, usually derived from enzyme kinetics or from competition with a known ligand. The low end stands for higher affinity, the high end for lower affinity.
